Measured values: patent publication US20080254462A1, “ALTERED ZDHHC8 EXPRESSION AS A MARKER OF INCREASED RISK OF SCHIZOPHRENIA” (priority 2005, published 2008)

Key:
[1] = system: homozygous Zdhhc8 mutant mice and wild-type littermate controls; experiment: Locomotor activating effects of MK801 in the open field; type: in vivo
Procedure: Open field assay. Animals were not pre-exposed to the chamber before testing. Activity was monitored in a clear acrylic chamber directly illuminated and equipped with infrared sensors for the automatic recording of horizontal and vertical activity (Colbourn Instruments). Each animal was placed initially in the periphery of the chamber, and recordings of the total distance traveled, the number of rearings (vertical moves) and the number of entries in the centerfield over the next 15 min were used as a measure of a locomotor response to novelty. 47 female mice (17 homozygous Zdhhc8 mutant, 17 heterozygous Zdhhc8 mutant and 13 wild-type littermate controls) and 45 male mice (13 homozygous Zdhhc8 mutant, 19 heterozygous Zdhhc8 mutant and 13 wild-type littermate controls) were tested.
Drug administration. MK801 was purchased from Sigma. Each experimental group consisted of 8-10 mice, which received the same number of injections, administered intraperitoneally, of either drug (0.4 mg per kg body weight) or vehicle. After 30 minutes of prehabituation in the open field, the mice were removed, injected and then left to rest for 10 minutes in their home cage before returning them to the open field arena, where they were monitored for an additional 30 minutes. […]

[2] = system: PSD95 (Post-Synaptic Density-95)

Compound	Sensitivity to MK801-induced stimulation of locomotor activity (ratio of activity after injection to activity before injection) ([1]; homozygous Zdhhc8 mutant female mice vs wild-type littermate controls, 0.4 mg per kg intraperitoneally, P=0.05, not in males)	Locomotor stimulation after MK801 injection ([1]; open field, 0.4 mg per kg body weight intraperitoneally, 30 minutes before and 30 minutes after injection, both genotypes, females and males)	metabolic labeling assay (palmitoylation of PSD95) [2]
C[C@]12N[C@H](Cc3ccccc31)c1ccccc12 [MK801, dizocilpine]	somewhat less sensitive to MK801-induced stimulation of locomotor activity than wild-type littermate controls	Locomotor stimulation after MK801 injection was observed in both genotypes in both females (E) and males (F)	
ZDHHC8 mutant "230" (lacks the entire C-terminal domain)			this form shows no essentially no activity when compared with vector-only control
